Assay results as given in PMC9032381 (Diagnostics, 2022).
Values joined by “and” are separate entries in the source; they are usually repeats but may differ in a detail not shown here. Equal values may be shown once. Read-outs that look alike come from different tables or passages of the source.

[1] = measured, listed as 18F-Afatinib

C=CC(=O)Nc1cc(Nc2nccc(-c3cn(C)c4ccccc34)n2)c(OC)cc1N(C)CCNC [AZ7550]
Active metabolite exposure (cited): 10 % AUC | Active metabolite potency relative to osimertinib (OSI) (cited): as OSI

CN(C)C/C=C/C(=O)Nc1cc2c(Nc3ccc([18F])c(Cl)c3)ncnc2cc1OC1CCOC1 (stereo not drawn) [^18F-afatinib]
SUV Aorta (blood SUV) (measured): 0.5 (±0.1) | SUV Brain (measured): 0.04 (0.01) | SUV Kidney (measured): 3.5 (0.7) | SUV Liver (measured): 11.8 (2.2) | SUV Lung (measured): 1.3 (0.5) | SUV Spleen (measured): 6.8 (1.0) | SUV Vertebra (measured): 2.4 (0.8) | SUV-AUC Liver (measured): 731.5 (87.4) MBq/mL and seconds | SUV-AUC Lung (measured): 98.5 (16.5) MBq/mL and seconds | TBR Brain (measured): 0.08 (0.03) | TBR Kidney (measured): 6.9 (1.8) | TBR Liver (measured): 23.3 (6.2) | TBR Lung (measured): 2.5 (1.2) | TBR Spleen (measured): 13.2 (2.3) | TBR Vertebra (measured): 4.8 (2.0) | TBR-AUC Liver (measured): 747.7 (426.3) TBR and seconds | TBR-AUC Lung (measured): 90.9 (37.9) TBR and seconds | parent fraction (measured): 70% and 35% | SUV Aorta (blood SUV) [1]: 0.5 (0.1) | SUV Tumor [1]: 1.8 (1.3) and 1.6 (0.1) | TBR Tumor [1]: 3.6 (2.4) and 3.3 (1.0) | TBR-AUC Tumor [1]: 150.7 (9.1) TBR and seconds and 113.0 (44.8) TBR

C#Cc1cccc(Nc2ncnc3cc(OCCOC)c(OCCO)cc23)c1 [OSI-420]
Active metabolite exposure (cited): 10 % AUC

C=CC(=O)Nc1cc(Nc2nccc(-c3cn([11CH3])c4ccccc34)n2)c(OC)cc1N(C)CCN(C)C [^11C-osimertinib]
parent fraction, initial decline (drop to) (measured): 50% | parent fraction, plateau (measured): 28–29%

C=CC(=O)Nc1cc(Nc2nccc(-c3cn(C)c4ccccc34)n2)c(OC)cc1N(C)CCN(C)C [Osimertinib, reference compound]
AUC dose normalized (cited): 75 µM·h | Cmin at Css (cited): 417 nM | Metabolism Liver (cited): ~99% | Renal extraction, unchanged (cited): 2% | Strength of basicity (cited): Strong | Target Ctrough (cited): 332 nM | Time to Css (cited): 15 days

C#Cc1cccc(Nc2ncnc3cc(OCCO)c(OCCOC)cc23)c1 [OSI413]
Active metabolite exposure (cited): 10 % AUC

CN(C)C/C=C/C(=O)Nc1cc2c(Nc3ccc(F)c(Cl)c3)ncnc2cc1O[C@H]1CCOC1 [Afatinib, reference compound]
AUC dose normalized (cited): 23 µM·h | Active metabolites (cited): None | Ka (cited): 0.252 h⁻¹ | Strength of basicity (cited): Strong | Target Ctrough (cited): 50 nM | Time to Css (cited): 8 days

C#Cc1cccc(Nc2ncnc3cc(OCCOC)c(OCCOC)cc23)c1 [Erlotinib, reference compound]
AUC dose normalized (cited): 207 µM·h | Cmin at Css (cited): 2567 nM | Ka (cited): 0.949 h⁻¹ | Metabolism Liver (cited): ~98% | Renal extraction, unchanged (cited): < 2% | Strength of basicity (cited): Weak | Target Ctrough (cited): 1271 nM | Time to Css (cited): 7 to 8 days

C=CC(=O)Nc1cc(Nc2nccc(-c3c[nH]c4ccccc34)n2)c(OC)cc1N(C)CCN(C)C [AZ5104]
Active metabolite exposure (cited): 10 % AUC | Active metabolite potency relative to osimertinib (OSI) (cited): higher
